Test results reported in patent publication US20240132464A1, “HETEROCYCLIC COMPOUNDS AS E3 LIGASE INHIBITORS” (Accutar Biotechnology Inc., priority 2022, published 2024).

Target: T1, GID4 (Uniprot ID: Q81VV7, residues 124-289) (Homo sapiens, UniProt Q8IVV7)
T1 construct: GID4 (Uniprot ID: Q81VV7, residues 124-289)
T1 sequence (Q8IVV7 124-289): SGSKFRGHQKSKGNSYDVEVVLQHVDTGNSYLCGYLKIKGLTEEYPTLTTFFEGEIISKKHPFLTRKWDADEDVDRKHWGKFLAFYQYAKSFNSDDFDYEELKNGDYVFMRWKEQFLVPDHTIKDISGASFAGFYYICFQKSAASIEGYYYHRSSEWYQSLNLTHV
Assay: GID4 competitive binding assay (AlphaScreen, GID4/degron peptide PGLW)
Details: 24 nM GID4, 48 nM biotinylated degron peptide PGLW, 4° C., read-out: IC50 (Inhibition of GID4/Degron binding by test compounds)
In short: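 His-tagged human GID4 (residues 124-289, 24 nM) pre-incubated 2 h at 4 °C with 48 nM biotinylated PGLW peptide and compound in HEPES pH 7.5 buffer, 2% DMSO (final). AlphaScreen streptavidin donor/Ni-NTA acceptor beads added for 1 h; IC50 from nonlinear fit of % inhibition versus DMSO.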

SMILES	IC50
CN(C)CCCNC(=O)Cc1ccc(-c2cc(O)c3ncccc3c2)cc1 [Compound 288, N-(3-(dimethylamino)propyl)-2-(4-(8-hydroxyquinolin-6-yl)phenyl)acetamide]	< 500 nM
CN1CCC(C)(NC(=O)c2n[nH]c3ccc(-c4ccc5ccnc(N)c5c4)cc23)CC1 [Compound 10, 5-(1-aminoisoquinolin-7-yl)-N-(1,4-dimethylpiperidin-4-yl)-1H-indazole-3-carboxamide]	< 500 nM
CN(C)CCNC(=O)c1csc(-c2cc(O)c3ncccc3c2)c1 [Compound 268, N-(2-(dimethylamino)ethyl)-5-(8-hydroxyquinolin-6-yl)thiophene-3-carboxamide]	< 500 nM
Nc1nc(C2CC2)cc(N2CCCC(c3ccn[nH]3)C2)n1 (centres unmarked) [Compound 211, 4-(3-(1H-pyrazol-5-yl)piperidin-1-yl)-6-cyclopropylpyrimidin-2-amine]	> 5000 nM
CN1CCN(C(=O)c2cccc(-c3ccc4ccnc(N)c4c3)c2)CC1 [Compound 351, (3-(1-aminoisoquinolin-7-yl)phenyl)(4-methylpiperazin-1-yl)methanone]	> 5000 nM
CN(C)CCCNC(=O)c1ncc(-c2cc(O)c3ncccc3c2)[nH]1 [Compound 275, N-(3-(dimethylamino)propyl)-5-(8-hydroxyquinolin-6-yl)-1H-imidazole-2-carboxamide]	< 500 nM
Nc1nc(N2CCCC(c3ccn[nH]3)C2)c2[nH]cnc2n1 (centres unmarked) [Compound 207, 6-(3-(1H-pyrazol-5-yl)piperidin-1-yl)-7H-purin-2-amine]	> 5000 nM
CN(C)CCCNC(=O)c1ccc(-c2cc(O)c3ncccc3c2)c(F)c1 [Compound 325, N-(3-(dimethylamino)propyl)-3-fluoro-4-(8-hydroxyquinolin-6-yl)benzamide]	500 to 5000 nM
CN(C)CCCNC(=O)c1ccc(-c2cc3cccnc3c(O)c2F)cc1 [Compound 308, N-(3-(dimethylamino)propyl)-4-(7-fluoro-8-hydroxyquinolin-6-yl)benzamide]	< 500 nM
Nc1nc2c(c(N3CCCC(c4ccn[nH]4)C3)n1)CCCN2 (centres unmarked) [Compound 187, 4-(3-(1H-pyrazol-5-yl)piperidin-1-yl)-5,6,7,8-tetrahydropyrido[2,3-d]pyrimidin-2-amine]	500 to 5000 nM
Nc1nc2c(c(N3CCCC(c4ccn[nH]4)C3)n1)CCC2 (centres unmarked) [Compound 195, 4-(3-(1H-pyrazol-5-yl)piperidin-1-yl)-6,7-dihydro-5H-cyclopenta[d]pyrimidin-2-amine]	> 5000 nM
CN(C)[C@H]1C[C@@H](NC(=O)c2csc(-c3cc(O)c4ncccc4c3)c2)C1 [Compound 264, N-(cis-3-(dimethylamino)cyclobutyl)-5-(8-hydroxyquinolin-6-yl)thiophene-3-carboxamide]	< 500 nM
Nc1cc(N2CCOC(c3cnc4ccccn34)C2)nc(N)n1 (single isomer, unassigned) [Compound 137, (S/R)-6-(2-(imidazo[1,2-a]pyridin-3-yl)morpholino)pyrimidine-2,4-diamine]	> 5000 nM
COC1CCN(C(=O)c2n[nH]c3ccc(-c4ccc5ccnc(N)c5c4)cc23)CC1 [Compound 332, (5-(1-aminoisoquinolin-7-yl)-1H-indazol-3-yl)(4-methoxypiperidin-1-yl)methanone]	< 500 nM
CN(C)CCCNC(=O)c1ccc(-c2cc(O)c3ncccc3c2)cc1Br [Compound 313, 2-bromo-N-(3-(dimethylamino)propyl)-4-(8-hydroxyquinolin-6-yl)benzamide]	500 to 5000 nM
CN(C)CCCNC(=O)c1ccc2c(-c3ccc4ccnc(N)c4c3)csc2c1 [Compound 357, 3-(1-aminoisoquinolin-7-yl)-N-(3-(dimethylamino)propyl)benzo[b]thiophene-6-carboxamide]	500 to 5000 nM
Nc1cc(N2CCC=C(c3ncn4ccccc34)C2)nc(N)n1 [Compound 237, 6-(5-(imidazo[1,5-a]pyridin-1-yl)-3,6-dihydropyridin-1(2H)-yl)pyrimidine-2,4-diamine]	500 to 5000 nM
Nc1nc(N2CCCC(c3ccn[nH]3)C2)c2sccc2n1 (centres unmarked) [Compound 217, 4-(3-(1H-pyrazol-5-yl)piperidin-1-yl)thieno[3,2-d]pyrimidin-2-amine]	> 5000 nM
Nc1nccc2ccc(-c3ccc4[nH][nH]c(=O)c4c3)cc12 [Compound 1, 5-(1-aminoisoquinolin-7-yl)-1,2-dihydro-3H-indazol-3-one]	500 to 5000 nM
Nc1nc(N2CCCC(c3ccn[nH]3)C2)c2[nH]ccc2n1 (centres unmarked) [Compound 206, 4-(3-(1H-pyrazol-5-yl)piperidin-1-yl)-5H-pyrrolo[3,2-d]pyrimidin-2-amine]	> 5000 nM

Results, then the compound that gave them:

IC50	SMILES
500 to 5000 nM	CNc1cc(N2CCC[C@H](c3ccccc3Br)C2)nc(N)n1 (stereo in doubt) [Compound 86, (R/S)-6-(3-(2-bromophenyl)piperidin-1-yl)-N4-methylpyrimidine-2,4-diamine]
500 to 5000 nM	Nc1cc(N2CCC(c3cnc4ccccn34)C2)nc(N)n1 (centres unmarked) [Compound 255, 6-(3-(imidazo[1,2-a]pyridin-3-yl)pyrrolidin-1-yl)pyrimidine-2,4-diamine]
> 5000 nM	CNc1cc(N2CCCC(n3ncc4ccccc43)C2)nc(N)n1 (centres unmarked) [Compound 254, 6-(3-(1H-indazol-1-yl)piperidin-1-yl)-N4-methylpyrimidine-2,4-diamine]
> 5000 nM	CC(C)c1cc(N2CCn3cncc3C2)nc(N)n1 [Compound 182, 4-(5,6-dihydroimidazo[1,5-a]pyrazin-7(8H)-yl)-6-isopropylpyrimidin-2-amine]
500 to 5000 nM	CC(C)c1cc(N2CCCC(c3cnc4ccncn34)C2)nc(N)n1 (centres unmarked) [Compound 239, 4-(3-(imidazo[1,2-c]pyrimidin-3-yl)piperidin-1-yl)-6-isopropylpyrimidin-2-amine]
< 500 nM	CC(C)c1nc(N)cc(N2CCCC(c3cnc4ccccn34)C2)n1 (single isomer, unassigned) [Compound 141, R or S-6-(3-(imidazo[1,2-a]pyridin-3-yl)piperidin-1-yl)-2-isopropylpyrimidin-4-amine]
> 5000 nM	Nc1cc(N2CCN(CCO)[C@@H](c3ccccc3Br)C2)nc(NC2CC2)n1 (stereo in doubt) [Compound 69, (S/R)-2-(4-(6-amino-2-(cyclopropylamino)pyrimidin-4-yl)-2-(2-bromophenyl)piperazin-1-yl)ethan-1-ol]
< 500 nM	CC(C)c1nc(N)cc(N2CCO[C@@H](c3ccccc3Br)C2)n1 (racemic) [Compound 72, (S/R)-6-(2-(2-bromophenyl)morpholino)-2-isopropylpyrimidin-4-amine]
< 500 nM	CC(C)c1cc(N2CCNC(c3cccc(F)c3Br)C2)nc(N)n1 (centres unmarked) [Compound 169, 4-(3-(2-bromo-3-fluorophenyl)piperazin-1-yl)-6-isopropylpyrimidin-2-amine]
500 to 5000 nM	Nc1cc(N2CC[C@H](O)[C@@H](c3ccccc3Br)C2)nc(N)n1 (relative stereo) [Compound 222, (3,4-trans)-3-(2-bromophenyl)-1-(2,6-diaminopyrimidin-4-yl)piperidin-4-ol]
500 to 5000 nM	CNc1cc(N2CCNC(c3csc4ccccc34)C2)nc(N)n1 (centres unmarked) [Compound 102, 6-(3-(benzo[b]thiophen-3-yl)piperazin-1-yl)-N4-methylpyrimidine-2,4-diamine]
500 to 5000 nM	CNc1cc(N2CCN(C)C(c3ccccc3)C2)nc(N)n1 (centres unmarked) [Compound 110, N4-methyl-6-(4-methyl-3-phenylpiperazin-1-yl)pyrimidine-2,4-diamine]
> 5000 nM	CC(C)c1cc(N2CCCC(c3cnc4ccccn34)C2)ncn1 (single isomer, unassigned) [Compound 149, (S/R)-3-(1-(6-isopropylpyrimidin-4-yl)piperidin-3-yl)imidazo[1,2-a]pyridine]
500 to 5000 nM	CNc1nc(N)cc(N2CCCC(c3ccccc3Br)C2)n1 (centres unmarked) [Compound 85, 6-(3-(2-bromophenyl)piperidin-1-yl)-N^2-methylpyrimidine-2,4-diamine]
< 500 nM	CC(C)c1cc(N2CCCC(c3cnc4ccccn34)C2)c2nc[nH]c2n1 (centres unmarked) [Compound 19, 7-(3-(imidazo[1,2-a]pyridin-3-yl)piperidin-1-yl)-5-isopropyl-3H-imidazo[4,5-b]pyridine]
> 5000 nM	Nc1cc(N2CCO[C@](CO)(c3ccccc3Br)C2)nc(N)n1 (stereo in doubt) [Compound 36, (R/S)-(2-(2-bromophenyl)-4-(2,6-diaminopyrimidin-4-yl)morpholin-2-yl)methanol]
< 500 nM	CC(C)c1cc(N2CCCC(c3cnc4ccccn34)C2)nc(N)n1 (centres unmarked) [Compound 178, 4-(3-(imidazo[1,2-a]pyridin-3-yl)piperidin-1-yl)-6-isopropylpyrimidin-2-amine]
< 500 nM	CC(C)c1cc(N2CCCC(c3cnc4ncccn34)C2)nc(N)n1 (centres unmarked) [Compound 245, 4-(3-(imidazo[1,2-a]pyrimidin-3-yl)piperidin-1-yl)-6-isopropylpyrimidin-2-amine]
> 5000 nM	Nc1nc(NC2CC2)cc(N2CCO[C@@H](c3ccccc3)C2)n1 (racemic) [Compound 95, (S/R)-N4-cyclopropyl-6-(2-phenylmorpholino)pyrimidine-2,4-diamine]
500 to 5000 nM	Nc1nc(NC2CC2)nc(N2CCN[C@@H](c3ccccc3Br)C2)n1 (stereo in doubt) [Compound 65, (S/R)-6-(3-(2-bromophenyl)piperazin-1-yl)-N2-cyclopropyl-1,3,5-triazine-2,4-diamine]
500 to 5000 nM	CNc1nc(C(C)C)cc(N2CCNC(c3ccccc3Br)C2)n1 (single isomer, unassigned) [Compound 153, R or S-4-(3-(2-bromophenyl)piperazin-1-yl)-6-isopropyl-N-methylpyrimidin-2-amine]
